The values below are quoted from earlier work in US6911441B2, “Prolonged release pharmaceutical composition” (Akzo Nobel N.V., priority 2002, dated 2005).

Values after ≈ are worked out from the molar mass of the structure shown.

In the data set the test system is Mannheimia haemolytica.

In the case of `CO/N=C(\C(=O)N[C@@H]1C(=O)N2C(C(=O)[O-])=C(C[n+]3cccc4c3CCCC4)CS[C@H]12)c1csc(N)n1` [Cefquinome], the MIC90 is 0.25 µg/mL (≈ 0.473 µM).

What is called MIC90 is the lowest concentration that inhibits either 90% of growth or 90% of the strains tested, depending on the study.
